# Data as given in patent US8735588B2, “Nematocidal sulfonamides” (E I Du Pont De Nemours and Company, priority 2009, dated 2014).
row,melting point [°C],SMILES
1,> 250,"CCc1ccc(Cl)c(S(=O)(=O)NC(=O)c2cn3cc(C(F)(F)F)cc(Cl)c3n2)c1 [Compound 356, 8-chloro-N-[(2-chloro-5-ethylphenyl)sulfonyl]-6-(trifluoromethyl)imidazo[1,2-a]pyridine-2-carboxamide]"
2,185 to 186,Cc1cc(S(=O)(=O)NC(=O)c2cn3cc(C(F)(F)F)cc(Cl)c3n2)c(C)cc1C#N [Compound 479]
3,> 250,COc1ccc(Cl)c(S(=O)(=O)[N-]C(=O)c2cn3cc(C(F)(F)F)cc(Cl)c3n2)c1.[Na+] [Compound 478]
4,251 to 252,"CCn1cc(S(=O)(=O)NC(=O)c2cn3cc(C(F)(F)F)cc(Cl)c3n2)c(C)n1 [Compound 357, 8-chloro-N-[(1-ethyl-3-methyl-1H-pyrazol-4-yl)sulfonyl]-6-(trifluoromethyl)-imidazo[1,2-a]pyridine-2-carboxamide]"
5,> 250,Cc1cc(S(=O)(=O)[N-]C(=O)c2cn3cc(C(F)(F)F)cc(Cl)c3n2)c(C)cc1C#N.[Na+] [Compound 477]
6,244 to 245,"Cc1cc(S(=O)(=O)NC(=O)c2cn3cc(C(F)(F)F)cc(Cl)c3n2)c(C)cc1C#N [Compound 19, 8-chloro-N-[(4-cyano-2,5-dimethylphenyl)sulfonyl]-6-(trifluoromethyl)imidazo[1,2-a]pyridine-2-carboxamide]"
